Laboratory results reported in patent publication US20240425518A1, “N-MACROCYCLIC AMIDE COMPOUNDS, PREPARATION METHODS THEREOF AND APPLICATIONS THEREOF AS MEDICAMENTS” (Chengdu FANXI Biopharma Co., Ltd., priority 2023, published 2024).
Changes are numbered by the printed parent chain.

How the values were obtained:
Format in all cases: biochemical
TrkA (h) = target: T1, TrkA (h) (Homo sapiens, UniProt P04629); assay: Radioisotope labeling kinase assay (Eurofins), TrkA
T1 construct: purchased Eurofins
T1 sequence (P04629 33-796): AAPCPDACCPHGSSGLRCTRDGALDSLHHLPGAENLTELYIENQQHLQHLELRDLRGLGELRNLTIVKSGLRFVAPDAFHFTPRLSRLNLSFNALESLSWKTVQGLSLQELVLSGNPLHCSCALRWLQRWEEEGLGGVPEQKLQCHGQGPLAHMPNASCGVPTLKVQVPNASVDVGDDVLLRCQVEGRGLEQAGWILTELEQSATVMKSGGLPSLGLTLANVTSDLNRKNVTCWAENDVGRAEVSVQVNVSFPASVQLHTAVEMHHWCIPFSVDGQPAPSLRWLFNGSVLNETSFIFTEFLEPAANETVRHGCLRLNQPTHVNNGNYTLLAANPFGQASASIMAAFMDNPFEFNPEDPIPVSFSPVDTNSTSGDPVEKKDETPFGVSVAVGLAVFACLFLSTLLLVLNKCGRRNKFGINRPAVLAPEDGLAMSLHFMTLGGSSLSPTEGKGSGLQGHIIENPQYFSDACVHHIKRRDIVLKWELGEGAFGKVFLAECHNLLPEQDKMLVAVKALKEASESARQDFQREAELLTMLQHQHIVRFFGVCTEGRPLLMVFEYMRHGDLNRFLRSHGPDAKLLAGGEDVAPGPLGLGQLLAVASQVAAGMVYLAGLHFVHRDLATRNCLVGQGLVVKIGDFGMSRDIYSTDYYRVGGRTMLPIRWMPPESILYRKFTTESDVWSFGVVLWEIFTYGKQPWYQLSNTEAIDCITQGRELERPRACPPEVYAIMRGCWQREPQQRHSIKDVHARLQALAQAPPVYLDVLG
Description: (§1) An activity to a human recombinant protein kinase of a series of compounds was determined by a radioisotope labeling method, which was provided by Eurofins Company. A compound to be detected was mixed with a corresponding protein kinase buffer (20 mM propyl sulfonate (MOPS, […].), 1 mM EDTA, 0.10 β-mercaptoethanol, 0.010 Brij-35, […], and 1 mg/mL BSA), the mixture was added into a reaction system (100 μM reaction substrate […], 8 mM MOPS with a pH value of 7.0, 10 mM MgAcetate, 0.2 mM EDTA, and a certain concentration of γ-^33P-ATP). After adding an MgATP composite solution, the reaction was started at room temperature for 40 minutes, and the reaction was terminated by adding 5 μl of […] solution. Then, 10 μl of reaction solution was dropwise added onto a filter and washed with 75 mM phosphoric acid solution for three times, 5 minutes each time, then washed with methanol once again, and dried and subjected to scintillation counting.

BTK (h) = target: T2, BTK (h) (Homo sapiens, UniProt Q06187); assay: Radioisotope labeling kinase assay (Eurofins), BTK; details: for activity at 1 µM: 1 μM compound, read-out: Inhibitory activity per unit concentration/Activity % BTK (h)
T2 construct: purchased Eurofins
T2 sequence (Q06187 whole entry): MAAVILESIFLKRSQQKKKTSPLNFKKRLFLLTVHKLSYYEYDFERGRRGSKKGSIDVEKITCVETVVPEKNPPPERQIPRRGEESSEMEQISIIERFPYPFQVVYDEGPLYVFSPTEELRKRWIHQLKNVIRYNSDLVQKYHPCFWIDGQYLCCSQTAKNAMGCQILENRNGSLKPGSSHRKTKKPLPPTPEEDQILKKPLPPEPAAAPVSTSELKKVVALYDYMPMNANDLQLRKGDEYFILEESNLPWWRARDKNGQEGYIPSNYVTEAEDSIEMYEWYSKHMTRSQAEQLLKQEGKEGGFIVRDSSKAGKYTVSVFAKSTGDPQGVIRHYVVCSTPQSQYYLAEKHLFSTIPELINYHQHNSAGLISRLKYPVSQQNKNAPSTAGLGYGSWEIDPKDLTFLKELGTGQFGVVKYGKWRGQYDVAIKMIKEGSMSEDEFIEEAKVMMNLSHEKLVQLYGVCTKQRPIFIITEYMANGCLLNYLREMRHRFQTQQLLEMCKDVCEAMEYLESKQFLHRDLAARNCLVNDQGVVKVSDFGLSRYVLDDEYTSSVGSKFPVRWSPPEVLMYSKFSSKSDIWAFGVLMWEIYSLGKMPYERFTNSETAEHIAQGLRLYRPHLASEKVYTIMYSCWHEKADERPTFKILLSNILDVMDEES
Description: as §1

JAK2 (h) = target: T3, JAK2 (h) (Homo sapiens, UniProt O60674); assay: Radioisotope labeling kinase assay (Eurofins), JAK2
T3 construct: purchased Eurofins
T3 sequence (O60674 whole entry): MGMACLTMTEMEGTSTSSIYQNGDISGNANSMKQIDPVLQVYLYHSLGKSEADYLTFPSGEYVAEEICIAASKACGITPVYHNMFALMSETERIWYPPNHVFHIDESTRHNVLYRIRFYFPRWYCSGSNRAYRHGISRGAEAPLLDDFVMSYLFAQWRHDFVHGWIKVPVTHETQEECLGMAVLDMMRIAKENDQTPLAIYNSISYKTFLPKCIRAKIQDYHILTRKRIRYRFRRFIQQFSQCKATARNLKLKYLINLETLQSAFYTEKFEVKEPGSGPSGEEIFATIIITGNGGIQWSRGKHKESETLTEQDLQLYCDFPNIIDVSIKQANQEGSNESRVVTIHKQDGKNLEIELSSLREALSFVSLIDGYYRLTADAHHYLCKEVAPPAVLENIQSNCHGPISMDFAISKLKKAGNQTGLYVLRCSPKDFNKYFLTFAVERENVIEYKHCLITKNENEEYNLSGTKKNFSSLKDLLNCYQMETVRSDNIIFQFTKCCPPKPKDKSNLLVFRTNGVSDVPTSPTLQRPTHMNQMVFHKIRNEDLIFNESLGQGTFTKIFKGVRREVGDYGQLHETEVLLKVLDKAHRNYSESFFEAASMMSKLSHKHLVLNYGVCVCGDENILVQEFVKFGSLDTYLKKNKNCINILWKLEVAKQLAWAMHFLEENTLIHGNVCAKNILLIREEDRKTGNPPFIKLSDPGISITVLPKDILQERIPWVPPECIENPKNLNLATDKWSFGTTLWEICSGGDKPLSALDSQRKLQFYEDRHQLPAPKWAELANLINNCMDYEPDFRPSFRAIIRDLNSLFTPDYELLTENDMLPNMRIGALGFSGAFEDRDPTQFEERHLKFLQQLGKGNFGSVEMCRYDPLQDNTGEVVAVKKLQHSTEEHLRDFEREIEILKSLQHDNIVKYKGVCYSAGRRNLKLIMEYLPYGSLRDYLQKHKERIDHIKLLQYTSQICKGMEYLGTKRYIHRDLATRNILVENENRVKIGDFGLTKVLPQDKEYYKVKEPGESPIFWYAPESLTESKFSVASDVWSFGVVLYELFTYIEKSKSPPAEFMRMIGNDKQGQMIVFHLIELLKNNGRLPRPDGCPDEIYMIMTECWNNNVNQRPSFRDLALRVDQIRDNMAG
Description: as §1

Flt3 (h) = target: T4, Flt3 (h) (Homo sapiens, UniProt P36888); assay: Radioisotope labeling kinase assay (Eurofins), Flt3; details: for activity at 1 µM: 1 μM compound, read-out: Inhibitory activity per unit concentration/Activity % Flt3 (h)
T4 construct: purchased Eurofins
T4 sequence (P36888 27-993): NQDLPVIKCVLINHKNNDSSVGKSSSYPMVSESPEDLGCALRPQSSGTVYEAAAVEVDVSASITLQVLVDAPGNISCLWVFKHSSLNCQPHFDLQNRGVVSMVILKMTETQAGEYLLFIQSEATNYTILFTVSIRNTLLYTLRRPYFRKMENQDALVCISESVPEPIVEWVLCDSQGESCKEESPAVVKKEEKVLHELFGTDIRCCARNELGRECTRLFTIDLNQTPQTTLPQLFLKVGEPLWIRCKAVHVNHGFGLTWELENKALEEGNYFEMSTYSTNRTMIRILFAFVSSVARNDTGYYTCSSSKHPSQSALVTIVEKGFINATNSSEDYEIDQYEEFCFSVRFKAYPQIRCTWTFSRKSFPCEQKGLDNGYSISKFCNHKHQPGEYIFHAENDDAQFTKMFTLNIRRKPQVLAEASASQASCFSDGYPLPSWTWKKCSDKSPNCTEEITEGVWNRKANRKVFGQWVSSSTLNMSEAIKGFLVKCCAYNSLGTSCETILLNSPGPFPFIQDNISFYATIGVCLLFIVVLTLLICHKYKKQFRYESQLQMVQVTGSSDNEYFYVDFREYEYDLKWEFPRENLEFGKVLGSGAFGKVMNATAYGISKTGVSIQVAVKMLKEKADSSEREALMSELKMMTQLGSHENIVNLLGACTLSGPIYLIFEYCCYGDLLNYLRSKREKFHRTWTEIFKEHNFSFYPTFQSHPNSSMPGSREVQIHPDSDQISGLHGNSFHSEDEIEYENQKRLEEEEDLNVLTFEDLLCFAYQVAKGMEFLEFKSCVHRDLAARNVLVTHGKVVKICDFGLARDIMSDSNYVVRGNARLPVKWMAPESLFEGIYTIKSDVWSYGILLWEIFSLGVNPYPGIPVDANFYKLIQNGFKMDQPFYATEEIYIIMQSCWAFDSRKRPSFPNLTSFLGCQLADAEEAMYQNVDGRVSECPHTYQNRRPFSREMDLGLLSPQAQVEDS
Description: as §1

Flt3 (D835Y) (h) = target: T5, Flt3 (D835Y) (h) (Homo sapiens, UniProt P36888, D835Y); assay: Radioisotope labeling kinase assay (Eurofins), Flt3 (D835Y); details: for activity at 1 µM: 1 μM compound, read-out: Inhibitory activity per unit concentration/Activity % Flt3 (D835Y) (h)
T5 construct: purchased Eurofins
T5 sequence (P36888 27-993 D835Y): T4 sequence (P36888 27-993) with D809Y
Description: as §1

JAK1 (h) = target: T6, JAK1 (h) (Homo sapiens, UniProt P23458); assay: Radioisotope labeling kinase assay (Eurofins), JAK1
T6 construct: purchased Eurofins
T6 sequence (P23458 whole entry): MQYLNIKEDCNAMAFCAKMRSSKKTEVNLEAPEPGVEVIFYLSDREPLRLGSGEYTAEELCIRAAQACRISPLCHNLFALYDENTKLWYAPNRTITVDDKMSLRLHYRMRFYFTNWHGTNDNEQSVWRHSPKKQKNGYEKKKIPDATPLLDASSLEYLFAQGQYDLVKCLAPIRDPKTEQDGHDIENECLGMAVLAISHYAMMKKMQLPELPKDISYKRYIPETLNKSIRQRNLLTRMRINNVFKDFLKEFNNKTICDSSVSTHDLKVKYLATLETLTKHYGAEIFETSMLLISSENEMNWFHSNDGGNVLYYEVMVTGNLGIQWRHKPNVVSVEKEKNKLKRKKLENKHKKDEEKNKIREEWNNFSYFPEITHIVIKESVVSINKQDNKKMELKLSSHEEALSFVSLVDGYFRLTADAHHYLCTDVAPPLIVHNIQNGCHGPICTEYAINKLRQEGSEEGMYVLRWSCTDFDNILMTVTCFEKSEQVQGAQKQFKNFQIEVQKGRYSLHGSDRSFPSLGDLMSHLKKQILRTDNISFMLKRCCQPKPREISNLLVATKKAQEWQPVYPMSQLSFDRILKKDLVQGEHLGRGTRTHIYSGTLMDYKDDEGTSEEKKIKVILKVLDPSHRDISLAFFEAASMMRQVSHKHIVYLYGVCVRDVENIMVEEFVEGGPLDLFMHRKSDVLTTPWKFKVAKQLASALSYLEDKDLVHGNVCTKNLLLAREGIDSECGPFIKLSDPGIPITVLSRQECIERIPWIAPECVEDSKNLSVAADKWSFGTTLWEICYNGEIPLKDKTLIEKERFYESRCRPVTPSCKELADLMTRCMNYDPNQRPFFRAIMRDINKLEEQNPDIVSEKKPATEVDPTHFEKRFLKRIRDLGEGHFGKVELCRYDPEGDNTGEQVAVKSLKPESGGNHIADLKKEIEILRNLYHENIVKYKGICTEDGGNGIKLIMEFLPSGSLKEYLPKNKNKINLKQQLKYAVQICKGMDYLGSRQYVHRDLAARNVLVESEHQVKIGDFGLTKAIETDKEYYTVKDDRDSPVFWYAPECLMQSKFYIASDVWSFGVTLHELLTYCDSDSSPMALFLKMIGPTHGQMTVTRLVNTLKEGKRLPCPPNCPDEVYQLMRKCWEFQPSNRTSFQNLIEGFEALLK
Description: as §1

SMILES | IC50 (TrkA (h)) | IC50 (BTK (h)) | activity at 1 µM (BTK (h)) | IC50 (JAK2 (h)) | IC50 (Flt3 (h)) | activity at 1 µM (Flt3 (h)) | IC50 (Flt3 (D835Y) (h)) | activity at 1 µM (Flt3 (D835Y) (h)) | IC50 (JAK1 (h))
CN(C)C/C=C/C(=O)Nc1cc2cc(c1)Nc1nccc(n1)-c1cccc(c1)COC/C=C/COC2 [XVI-8] | 3 nM | 48 nM | 9% | 29 nM | 9 nM | 2% | 9 nM | -2% | 262 nM
CN(C)C/C=C/C(=O)Nc1cc2cc(c1)Nc1nccc(n1)-c1cccc(c1)COC/C=C/CN(C)C2 [XVI-26] | 28 nM | 1250 nM | 50% | 328 nM | 21 nM | 7% | 17 nM | 0% | 136 nM
C/C=C/C(=O)Nc1cc2cc(c1)Nc1nccc(n1)-c1cccc(c1)COC/C=C/CN(C)C2 [XVI-28] | 20 nM | 1470 nM | 57% | 86 nM | 9 nM | 8% | 20 nM | 1% | 40 nM
O=C(O)/C=C/C(=O)Nc1cc2cc(c1)Nc1nccc(n1)-c1cccc(c1)COC/C=C/COC2 [XVI-9] | 3 nM |  | 62% | 7 nM | 31 nM | 4% | 5 nM | 1% | 19 nM
C1=C/COCc2cccc(c2)-c2ccnc(n2)Nc2cc(cc(OC/C=C/CN3CCCC3)c2)COC/1 [XVI-12] | 18 nM |  | 38% | 124 nM | 15 nM | -8% | 3 nM | 7% | 492 nM
O=C(/C=C/C(=O)N1CCOCC1)Nc1cc2cc(c1)Nc1nccc(n1)-c1cccc(c1)COC/C=C/COC2 [XVI-10] | 16 nM |  | 31% | 17 nM | 21 nM | 3% | 4 nM | 5% | 89 nM
C#CC(=O)Nc1cc2cc(c1)Nc1nccc(n1)-c1cccc(c1)COC/C=C/COC2 [XVII-1] | 2 nM |  | 8% | 13 nM | 7 nM | 4% | 7 nM | -1% | 33 nM
O=C(/C=C/C(=O)N1CCNCC1)Nc1cc2cc(c1)Nc1nccc(n1)-c1cccc(c1)COC/C=C/COC2 [XVI-11] | 21 nM |  | 18% | 38 nM | 22 nM | 1% | 6 nM | 1% | 167 nM
C=CC(=O)Nc1cc2cc(c1)Nc1nccc(n1)-c1cccc(c1)COC/C=C/COC2 [XVI-6] | 2 nM | 348 nM | 16% | 16 nM | 15 nM | 5% | 10 nM | -1% | 106 nM

Next, values leading:

IC50 (TrkA (h)) | IC50 (BTK (h)) | activity at 1 µM (BTK (h)) | IC50 (JAK2 (h)) | IC50 (Flt3 (h)) | activity at 1 µM (Flt3 (h)) | IC50 (Flt3 (D835Y) (h)) | activity at 1 µM (Flt3 (D835Y) (h)) | IC50 (JAK1 (h)) | SMILES
2 nM | 40 nM | 7% | 6 nM | 4 nM | 3% | 5 nM | 1% | 44 nM | O=C(/C=C/CN1CCOCC1)Nc1cc2cc(c1)Nc1nccc(n1)-c1cccc(c1)COC/C=C/COC2 [XVI-3]
2 nM | 157 nM | 6% | 6 nM | 8 nM | 4% | 9 nM | -1% | 17 nM | Nc1cc2cc(c1)Nc1nccc(n1)-c1cccc(c1)COC/C=C/COC2 [XIII-1]
2 nM | 238 nM | 9% | 10 nM | 5 nM | 5% | 10 nM | -1% | 44 nM | C/C=C/C(=O)Nc1cc2cc(c1)Nc1nccc(n1)-c1cccc(c1)COC/C=C/COC2 [XVI-4]
1 nM | 29 nM | 2% | 9 nM | 2 nM | 1% | 3 nM | -1% | 69 nM | O=C(/C=C/CN1CCCC1)Nc1cc2cc(c1)Nc1nccc(n1)-c1cccc(c1)COC/C=C/COC2 [XVI-1]
